Source: patent publication US12649980B2, “Three-dimensional surface for protein and small molecule microarrays” (The Johns Hopkins University, priority 2019, dated 2026)

Assays:
HCC1954 xenograft = assay: HCC1954 breast cancer xenograft in nude mice; type: in vivo
Description: (§1) Given that RgA inhibited multiple isoforms of GLUTs, including GLUT1, 3, and 4, it raised the question of whether animals could tolerate RgA. As breast cancer cell lines are more sensitive to RgA than other cell lines (FIG. 6A and Table 3), the anti-breast cancer activity of RgA in vivo was assessed. Two breast cancer cell lines were selected for the xenograft experiment-MCF-7, an ER+, HER2− line, and HCC1954, an ER−, HER2+ breast line. NSG mice bearing MCF-7 tumors were given daily vehicle or RgA at a dose of 2 mg/kg for […].
All animal studies were conducted in compliance with all relevant ethical regulations set forth by the Johns Hopkins University Animal Care and Use Committee (ACUC). Female mice aged 4-6 weeks and weighing 18-22 g were maintained in a pathogen-free facility at Johns Hopkins Medical Institutions and cared for according to National Institutes of Health guidelines and under a protocol approved by the Johns Hopkins University Animal Care Committee. For the xenograft experiment of MCF-7, 17β-estradiol pellets (0.72 mg per pellet, 60-day release, Innovative Research of America, FL) were implanted at 5 days prior to tumor cell injection. […] The tumor volume was measured periodically using a Vernier caliper and calculated according to the modified ellipsoid formula: tumor volume (mm^3)=(short axis)^2×(long axis)×π/6. […]

HCC1954 [1] = assay: Alamar blue cell proliferation assay, HCC1954; type: cell-based, human; details: HCC1954, 72 h; read-out: IC50 Assay B (Alamar blue cell proliferation)
Description: (§2) The effects of RgA on cell growth, survival, and cell death was then determined. […] Treatment with 5 μM of RgA caused an increase in G1 phase by approximately 23% in comparison to control and approximately 7% and 17% decreases in cells in S and G2/M phases, respectively. The induction in G1 phase cell cycle arrest by RgA is dose-dependent (FIG. 5A, FIG. 16). […] Jones and Thompson, Genes Dev. 2009, 23, 537-548. […] The IC50 values of RgA against several human cancer cell lines also was determined using the alamar blue cell proliferation assay.
(§3) Cells were seeded into a 96-well plate (Costar) in 180 μL culture media. After an overnight recovery, drugs were added and incubated for 72 h. After drug incubation, cells were added with 20 μL of alamar blue reagent and the plates were incubated at 37° C. for 6 h before reading the fluorescence (544 nm Ex/590 nm Em) with a plate reader. GraphPad Prism (v4.03) software was used to determine IC50 values using a four parameter logistic regression.

RKO [2] = assay: [3H]-2DG uptake assay in RKO cells; type: cell-based, human
Description: (§4) Hay, Nat. Rev. […] To determine whether RgA could inhibit glucose uptake in cancer cell lines in addition to A549, the impact of RgA on [3H]-2DG uptake in six other cancer cell lines, including HCC1954, MCF-7, PANC10.05, Jurkat T, HeLa, and RKO was measured (FIG. 3A, Table 3).
(§5) The inhibitory activity of compounds on glucose transport was analyzed by measuring the cell uptake of [3H]-2DG as previously described. Ulanovskaya et al., Chem. Biol. 2011, 18, 222-230. Briefly, cells were washed twice and incubated in low-glucose medium for 10 min. Cells were added drugs and incubated for another 10 min before adding [3H]-2DG. After 10 min incubation with [3H]-2DG, cells were washed twice and lysed with 0.2 N NaOH plus 0.2% SDS. The cell lysate was transferred to a new tube containing 1 mL of optiphase supermix. Glucose uptake was quantified with a scintillation counter.

HeLa [3] = assay: [3H]-2DG uptake assay in HeLa cells; type: cell-based, human
Description: as §4, §5

PANC10.05 = assay: [3H]-2DG uptake assay in PANC10.05 cells; type: cell-based, human; details: PANC 10.05
Description: as §4, §5

HCC1954 [4] = assay: [3H]-2DG uptake assay in HCC1954 cells; type: cell-based, human
Description: as §4, §5

FKSP13 = FKSP13 (Homo sapiens, UniProt P26885); assay: peptidyl prolyl cis-trans isomerase activity inhibition, FKSP13; type: biochemical; details: inhibition of prolyl isomerase activity
FKSP13, sequence (P26885 22-142): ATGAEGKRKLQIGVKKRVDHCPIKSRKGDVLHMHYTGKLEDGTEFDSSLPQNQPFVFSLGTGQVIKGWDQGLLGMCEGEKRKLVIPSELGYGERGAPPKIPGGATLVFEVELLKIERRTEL

[5] = tested on: Jurkat T FKBP knock out cells; assay: [3H]-2DG uptake in Jurkat T FKBP12, FKBP51, FKBP52 knock out cells; type: cell-based, human; details: Jurkat T FKBP12, FKBP51, FKBP52 KO versus WT
Description: To further determine the dependence of RgA on endogenous FKBP, three major isoforms of FKBP, FKBP12, FKBP51 and FKBP52 were knocked out using CRISPR-Cas9 in Jurkat T cells. Guo et al., Nat. Chem. 2019, 11, 254-263. Unlike ENT1 inhibitor rapacodin, Guo et al., Nat.
as §5

RKO [6] = assay: Alamar blue cell proliferation assay, RKO; type: cell-based, human; details: 72 h, read-out: IC50 Assay B (Alamar blue cell proliferation)
Description: as §2, §3

Jurkat T [7] = assay: Alamar blue cell proliferation assay, Jurkat T; type: cell-based, human; details: 72 h, read-out: IC50 Assay B (Alamar blue cell proliferation)
Description: as §2, §3

MCF-7 tumors = assay: MCF-7 breast cancer xenograft in NSG mice; type: in vivo
Description: as §1
All animal studies were conducted in compliance with all relevant ethical regulations set forth by the Johns Hopkins University Animal Care and Use Committee (ACUC). Female mice aged 4-6 weeks and weighing 18-22 g were maintained in a pathogen-free facility at Johns Hopkins Medical Institutions and cared for according to National Institutes of Health guidelines and under a protocol approved by the Johns Hopkins University Animal Care Committee. For the xenograft experiment of MCF-7, 17β-estradiol pellets (0.72 mg per pellet, 60-day release, Innovative Research of America, FL) were implanted at 5 days prior to tumor cell injection. Approximately 5 million MCF-7 cells were implanted subcutaneously into NSG mice (n=6 per group, NSG, The Jackson Laboratory). For the xenograft experiment of HCC1954, approximately 2 million cells were implanted subcutaneously into athymic nude mice (n=6 per group, NCr-nu/nu, Charles River). After tumors became palpable, the mice bearing MCF-7 and HCC1954 tumors were treated with either vehicle (saline with 5% PEG400, 5% Tween80 and 5% DMSO) or RgA via intraperitoneal injection every day. The tumor volume was measured periodically using a Vernier caliper and calculated according to the modified ellipsoid formula: tumor volume (mm^3)=(short axis)^2×(long axis)×π/6. After 30 days of treatment, the mice were killed, and the tumor tissues were extracted and stored in 10% formalin solution for future use.

Jurkat T [8] = assay: [3H]-2DG uptake assay in Jurkat T cells; type: cell-based, human
Description: as §4, §5

MCF-7 = assay: Alamar blue cell proliferation assay, MCF-7; type: cell-based, human; details: MCF-7, 72 h; read-out: IC50 Assay B (Alamar blue cell proliferation)
Description: as §2, §3

FKBP25 = FKBP25 (Homo sapiens, UniProt Q00688); assay: peptidyl prolyl cis-trans isomerase activity inhibition, FKBP25; type: biochemical; details: inhibition of prolyl isomerase activity
FKBP25, sequence (Q00688 whole entry, species assumed): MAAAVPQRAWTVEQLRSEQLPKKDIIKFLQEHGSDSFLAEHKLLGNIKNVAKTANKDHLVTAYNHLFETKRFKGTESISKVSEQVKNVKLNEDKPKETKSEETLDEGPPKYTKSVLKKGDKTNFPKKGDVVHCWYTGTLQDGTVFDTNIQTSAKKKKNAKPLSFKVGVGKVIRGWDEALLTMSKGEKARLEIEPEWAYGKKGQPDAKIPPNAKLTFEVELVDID

HeLa [9] = assay: Alamar blue cell proliferation assay, HeLa; type: cell-based, human; details: 72 h, read-out: IC50 Assay B (Alamar blue cell proliferation)
Description: as §2, §3

IC50 (HCC1954 [1]): 109 nM
IC50 (RKO [2]): 10.8 nM
IC50 (HeLa [3]): 18.9 nM
IC50 (PANC10.05): 9.5 nM
IC50 (HCC1954 [4]): 8.3 nM
Ki (FKSP13): 539 ± 207 nM
IC50 (Jurkat T [7]): 132 nM
IC50 (Jurkat T [8]): 10.1 nM
IC50 (MCF-7): 87.3 nM
Ki (FKBP25): > 5000 nM
IC50 (HeLa [9]): 281 nM
Compound: CCC(C)C1C(=O)NCC(=O)N(C)CCC=CC(=O)OCC(C)(C)C(=O)C(=O)N2CCCCC2C(=O)OC(CCc2ccc(OC)c(OC)c2)c2cccc(c2)NC(=O)CCC(=O)N(C)C(CC(C)C)C(=O)NC(Cc2ccccc2)C(=O)N1C (stereo not drawn) [JW11-D2, Rapaglutin A]
tumor volume index on day 38 (HCC1954 xenograft; HCC1954 in nude mice, 2 mg/kg intraperitoneally daily, vehicle 26.14): 12.97
weight loss and signs of adverse effects (HCC1954 xenograft; HCC1954 xenograft mice, 2 mg/kg daily): no significant weight loss or any signs of adverse effects
effect of knockout of three FKBP isoforms on sensitivity of cells [5]: negligible effects
IC50 (RKO [6]): 114 nM
tumor weight (MCF-7 tumors; MCF-7 in NSG mice, 2 mg/kg daily, vehicle 454 mg): 285 mg
tumor volume index on day 38 (MCF-7 tumors; MCF-7 in NSG mice, 2 mg/kg intraperitoneally daily, vehicle 2.84): 1.70
weight loss and signs of adverse effects (MCF-7 tumors; MCF-7 xenograft mice, 2 mg/kg daily): no significant weight loss or any signs of adverse effects
